# Reference: PubChem BioAssay (NCI)
# Values joined by “and” are separate entries in the source; they are usually repeats but may differ in a detail not shown here. Equal entries are not always repeated.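 Cultured in 96-well plates, cells were exposed to test compound for 48 hours across five concentrations. Here, GI50 denotes the concentration required for 50% inhibition of growth. TGI: total growth inhibition.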
# Assays:
# Test in all cases: NCI tumour cell line growth inhibition, 48 h
# UACC-62 melanoma = system: UACC-62 melanoma
# OVCAR-5 ovarian = system: OVCAR-5 ovarian
# NCI/ADR-RES ovarian = system: NCI/ADR-RES ovarian
# SF-295 CNS = system: SF-295 CNS
# MOLT-4 leukemia = system: MOLT-4 leukemia
# MDA-MB-231 breast = system: MDA-MB-231 breast
# SW-620 colon = system: SW-620 colon
# IGROV1 ovarian = system: IGROV1 ovarian
# SNB-19 CNS = system: SNB-19 CNS
# SN12C renal = system: SN12C renal
Structure (SMILES),GI50 (UACC-62 melanoma),TGI (UACC-62 melanoma),GI50 (OVCAR-5 ovarian),TGI (OVCAR-5 ovarian),GI50 (NCI/ADR-RES ovarian),TGI (NCI/ADR-RES ovarian),GI50 (SF-295 CNS),TGI (SF-295 CNS),GI50 (MOLT-4 leukemia),TGI (MOLT-4 leukemia),GI50 (MDA-MB-231 breast),TGI (MDA-MB-231 breast),GI50 (SW-620 colon),TGI (SW-620 colon) [µM],GI50 (IGROV1 ovarian),TGI (IGROV1 ovarian),GI50 (SNB-19 CNS),TGI (SNB-19 CNS),GI50 (SN12C renal),TGI (SN12C renal)
C[N+]1=C(/C=C\C=C\c2ccccc2)C(C)(C)c2ccccc21,1.65 µM,4.98 µM,3.88 µM,13.3 µM,9.45 µM,33.9 µM,10.8 µM,24.6 µM,2.13 µM,6.44 µM,2.36 µM,7.52 µM,1.38 µM,4.08,2.06 µM,8.2 µM,2.79 µM,10.8 µM,0.863 µM,12.4 µM
CN(C)c1ccc(/C=C/c2cc[n+](C)c(/C=C/c3ccc(N(C)C)cc3)c2)cc1,0.357 µM,1.68 µM,0.401 µM,14.2 µM,3.81 µM,18.7 µM,0.27 µM,1.32 µM,0.388 µM,3.53 µM,0.322 µM,1.28 µM,0.336 µM,5.6,0.821 µM,3.43 µM,0.322 µM,2.95 µM,0.273 µM,1.15 µM
N#C/C(=C\c1ccc(Br)cc1)n1nnc2ccc(F)cc21,0.713 µM,2.71 µM,1.87 µM,3.99 µM,0.34 µM,3.42 µM,2.11 µM,5.07 µM,2.18 µM,> 100 µM,1.87 µM,4.8 µM,0.447 µM,2.34,0.569 µM,2.25 µM,1.66 µM,3.16 µM,1.72 µM,4.37 µM
C#CCOc1cccc(Nc2ncnc3cc(NC(=O)CCl)ccc23)c1,4.24 µM,16.9 µM,10.3 µM,23 µM,4.13 µM,42.9 µM,3.52 µM,15.2 µM,1.96 µM,7.42 µM,5.28 µM,19.9 µM,1.23 µM,3.25,2.78 µM,11.9 µM,4.98 µM,18.4 µM,4.1 µM,17.3 µM
CC(C)=CC1=C2C3=C(C(=O)C4(O)Oc5c(C)c6c7c(c5OC24C)[C@@H](C)CC[C@@H]7[C@@H](C)C[C@H]6C=C(C)C)C(C)CCC3C(C)C1 (some centres undefined),> 100 µM,> 100 µM,> 100 µM,> 100 µM,> 100 µM,> 100 µM,> 100 µM,> 100 µM,> 100 µM,> 100 µM,> 100 µM,> 100 µM,> 100 µM,> 100,> 100 µM,> 100 µM,> 100 µM,> 100 µM,> 100 µM,> 100 µM
Cc1cc(C)c(-n2c(-c3ccc(Br)cc3)cs/c2=N\N=C2C=C(C(C)(C)C)C(=O)C(C(C)(C)C)=C2)c(C)c1,–,> 100 µM,–,> 100 µM,–,> 100 µM,–,> 100 µM,–,> 100 µM,–,> 100 µM,–,> 100,–,> 100 µM,–,> 100 µM,–,> 100 µM
O=c1c(-c2ccccc2)coc2cc(OC/C(=N/O)c3ccccc3)ccc12,15.2 µM,31.4 µM,37 µM,> 100 µM,17.8 µM,60 µM,29.5 µM,74.9 µM,12.4 µM,> 100 µM,18.2 µM,43.7 µM,20.2 µM,64.8,17.5 µM,> 100 µM,23.2 µM,86.9 µM,18 µM,39.9 µM
CCN(CC)c1ccc(C(=O)c2ccc(N(CC)CC)cc2)cc1,0.429 µM,> 100 µM,4.1 µM,> 100 µM,0.355 µM,1.89 µM,0.289 µM,4.17 µM,0.718 µM,19.8 µM,1.23 µM,28.2 µM,0.326 µM,17,0.602 µM,> 100 µM,2.47 µM,> 100 µM,0.787 µM,35.5 µM
COc1cc(Nc2ncc(F)c(Nc3ccc4c(n3)N(COP(=O)(O)O)C(=O)C(C)(C)O4)n2)cc(OC)c1OC,2.1 µM and 1.64 µM,12 µM and > 10 µM,1.7 µM and 1.38 µM,9.62 µM and > 10 µM,2.99 µM and 3.01 µM,17.2 µM and > 10 µM,1.39 µM and 1.17 µM,7.55 µM and 8.7 µM,3.54 µM and 3.05 µM,> 62 µM,1.67 µM and 1.35 µM,5.07 µM and 7.69 µM,3.6 µM and 3.98 µM,> 84.4,0.457 µM and 0.342 µM,2.22 µM and 2.11 µM,2.68 µM and 2.84 µM,21.3 µM and > 10 µM,1.01 µM and 1.05 µM,16.6 µM and > 10 µM
CCN1CCN(CC(=O)N2c3cccc4cccc(c34)N(C(=O)CN3CCN(CC)CC3)C2c2cn(-c3ccccc3)nc2-c2cccc([N+](=O)[O-])c2)CC1,1.73 µM,3.2 µM,1.8 µM,3.45 µM,1.98 µM,4.16 µM,1.84 µM,3.44 µM,1.69 µM,5.06 µM,1.42 µM,2.88 µM,1.73 µM,3.41,1.62 µM,3.28 µM,1.66 µM,3.42 µM,1.49 µM,3.01 µM
C=C1CC2(OC1=O)C(=O)Nc1ccccc12 (centres undefined),2.23 µM,6.76 µM,5.83 µM,19.4 µM,2.86 µM,11.2 µM,28.9 µM,> 100 µM,2 µM,5.98 µM,4.62 µM,17 µM,1.38 µM,3.22,2.36 µM,7.72 µM,32.9 µM,> 100 µM,3.74 µM,14.1 µM
NCCCNCCCCNC(=O)C(O)NC(=O)CCCCCCN=C(N)N (centres undefined),> 2860 µM,750 µM and > 5000 µM,> 3010 µM,> 5000 µM,2190 µM,> 5000 µM,1400 µM,608 µM and > 4710 µM,1620 µM,750 µM and > 4510 µM,> 2570 µM,> 5000 µM,1900 µM,> 5000,2620 µM,750 µM and > 5000 µM,2080 µM,750 µM and > 4430 µM,2040 µM,> 5000 µM
O=C1C(Cl)=C(NCc2ccco2)C(=O)c2ccccc21,3.98 µM,13.6 µM,33.8 µM,> 65.1 µM,31.2 µM,> 100 µM,8.24 µM,41.6 µM,52.1 µM,> 100 µM,18.4 µM,> 81.5 µM,18.3 µM,> 100,10.9 µM,44 µM,24.3 µM,> 100 µM,25.9 µM,> 100 µM
COc1cc2c(cc1OC)C13CCN4CC5CCOC6CC(=O)N2C1C6C5CC43 (centres undefined),–,> 100 µM,–,> 100 µM,–,> 100 µM,–,> 100 µM,–,> 100 µM,–,> 100 µM,–,> 100,–,> 100 µM,–,> 100 µM,–,> 100 µM
CC(=O)OCc1cc2ccccc2nc1C(Br)(Br)Br,–,32.2 µM,–,30.7 µM,–,44 µM,–,32.9 µM,–,28.1 µM,–,44.9 µM,–,44.8,–,25.7 µM,–,46.2 µM,–,26.3 µM
COc1ccc(-c2ccc(-c3ccc(C(=N)N)o3)o2)cc1,1.29 µM,3.05 µM,2.42 µM,5.88 µM,1.88 µM,10.1 µM,1.68 µM,3.51 µM,1.2 µM,4.3 µM,1.9 µM,4.28 µM,0.532 µM,2.43,1.73 µM,7.03 µM,1.99 µM,11.3 µM,2.02 µM,4.59 µM
OCC#Cc1ccccc1C#CCCCCCC#Cc1ccccc1C#CCO,17.9 µM,32.3 µM,12.8 µM,28.6 µM,18.8 µM,36.7 µM,16.9 µM,33.8 µM,15.6 µM,37.3 µM,17.2 µM,32.6 µM,21.9 µM,43.3,18.7 µM,43.3 µM,34.8 µM,> 100 µM,19.2 µM,33.6 µM
CCCCCCCc1cc2c3c(nc4ccccc42)C(=O)c2cccnc2-c3n1,5.41 µM,10.1 µM,4.09 µM,10.7 µM,4.33 µM,12.6 µM,3.45 µM,7.32 µM,1.54 µM,> 20.2 µM,6.71 µM,20 µM,1.5 µM,6.34,3.28 µM,15.1 µM,2.17 µM,7.31 µM,4.81 µM,10.8 µM
CN(Cc1cc(C(C)(C)C)cc(Br)c1O)Cc1cc(C(C)(C)C)cc(Br)c1O,–,12.8 µM,–,18.5 µM,–,11.1 µM,–,14.3 µM,–,19.9 µM,–,6.91 µM,–,16.9,–,13.5 µM,–,19.3 µM,–,15.2 µM
Cc1cnc(C(=O)NNc2nc3sc4c(c3c(=O)n2C)C(C)CCC4)cn1 (centres undefined),0.346 µM,2.24 µM,0.491 µM,7.4 µM,0.392 µM,10.8 µM,0.384 µM,3.91 µM,0.346 µM,–,0.335 µM,4.04 µM,0.408 µM,6.66,0.292 µM,2.8 µM,0.425 µM,5.45 µM,0.51 µM,4.55 µM
Cc1ncc(C(=O)Nc2ccc(CN3CCN(C)CC3)c(C(F)(F)F)c2)cc1C#Cc1cnc(N)cc1C#N,0.0518 µM,0.645 µM,1.66 µM,4 µM,2.12 µM,5.24 µM,1.88 µM,3.98 µM,0.336 µM,3.16 µM,0.222 µM,1.92 µM,0.802 µM,3.2,0.103 µM,2.06 µM,2.37 µM,4.67 µM,0.305 µM,2.32 µM
COc1cc(C2CC(c3ccc(Nc4ccnc5cc(Cl)ccc45)cc3)=NN2c2ccc(Cl)cc2)cc(OC)c1OC (centres undefined),1.17 µM,5.54 µM,6.08 µM,> 100 µM,1.7 µM,> 100 µM,2.02 µM,8.32 µM,3.86 µM,> 100 µM,1.93 µM,27.1 µM,2.55 µM,> 100,4.81 µM,> 100 µM,4.91 µM,> 100 µM,7.56 µM,> 100 µM
Cc1cn(-c2cc(NC(=O)c3ccc(C)c(Nc4nccc(-c5cccnc5)n4)c3)cc(C(F)(F)F)c2)cn1,1.65 µM and 1.09 µM,> 10 µM and 9.18 µM,> 10 µM and 3.48 µM,> 10 µM and 16.4 µM,5.72 µM and 2.5 µM,> 10 µM and 16.1 µM,3.16 µM and 2.78 µM,> 10 µM and 11.3 µM,3.21 µM and 1.6 µM,> 37.2 µM,3.68 µM and 1.81 µM,> 10 µM and 14.3 µM,4.44 µM and 3.43 µM,> 40.9,2.23 µM and 1.83 µM,5.06 µM and 4.2 µM,> 10 µM and 13.1 µM,> 10 µM and 32.7 µM,> 10 µM and 13 µM,> 10 µM and 29 µM
C=C(c1ccccc1)[C@@]1(O)CC[C@@H]1N(CC#N)Cc1ccccc1,–,32.1 µM,–,> 100 µM,–,43.8 µM,–,> 100 µM,–,69.2 µM,–,27.5 µM,–,34.8,–,72.6 µM,–,> 63.8 µM,–,46.8 µM
CC12CCC(Br)C(C)(C)C1CC=C1C(=O)OCC1O2 (centres undefined),–,25.7 µM,–,> 53.3 µM,–,56.9 µM,–,37.6 µM,–,> 100 µM,–,31.5 µM,–,32.8,–,17.7 µM,–,> 50.4 µM,–,> 55.9 µM
O=C(OC[C@H]1O[C@H](OC(=O)c2cc(O)c(O)c(OC(=O)c3cc(O)c(O)c(O)c3)c2)[C@H](OC(=O)c2cc(O)c(O)c(OC(=O)c3cc(O)c(O)c(O)c3)c2)[C@@H](OC(=O)c2cc(O)c(O)c(OC(=O)c3cc(O)c(O)c(O)c3)c2)[C@@H]1OC(=O)c1cc(O)c(O)c(OC(=O)c2cc(O)c(O)c(O)c2)c1)c1cc(O)c(O)c(OC(=O)c2cc(O)c(O)c(O)c2)c1,0.985 µM,> 25 µM,4.95 µM,> 25 µM,1.3 µM,18.9 µM,0.941 µM,> 25 µM,4.32 µM,> 25 µM,0.898 µM,> 25 µM,5.48 µM,> 25,3.69 µM,> 25 µM,2.57 µM,> 25 µM,4.2 µM,> 25 µM
